Target: T1, human CXCR4 (Homo sapiens, UniProt P61073)
T1 construct: expressed in transfected cells; host or cells: HEK293 cells (membranes)
Experiment: Inhibition of 125I-CXCL12 radioligand binding, membranes of human CXCR4-transfected HEK293 cells
Details: 0.16 nM 125I-CXCL12, 60 min at 30 °C, read-out: concentration required to inhibit binding of 125I-CXCL12 to CXCR4 by 50% (IC50)
Procedure: Binding competition between the compounds of Formula (I) and human CXCL12 was assessed using a radioligand binding assay as described below.
Membranes (2-4 μg) prepared from human CXCR4-transfected HEK293 cells in 40 μL of assay buffer (50 mM HEPES-NaOH, pH 7.4, 100 mM NaCl, 5 mM MgCl2, 1 mM CaCl2, 0.5% bovine serum albumin) were incubated with 20 μL of radio-labeled ^125I-CXCL12 (0.16 nM) and 20 μL of a test compound in an assay plate (Costar Corning, Cambridge, Mass.). After 60 minutes at 30° C., the incubation was terminated by transferring the resulting reaction mixture to a 96-well GF/B filter plate (Millipore Corp., Billerica, Mass.) and filtered via a manifold. The plate was washed with 100 μL of ice-cold wash buffer (50 mM HEPES-NaOH, pH 7.4, 100 mM NaCl) four times. The radioactivity bound to the filter was measured by Topcount (PerkinElmer Inc., Waltham, Mass.).

T1 sequence (P61073 whole entry): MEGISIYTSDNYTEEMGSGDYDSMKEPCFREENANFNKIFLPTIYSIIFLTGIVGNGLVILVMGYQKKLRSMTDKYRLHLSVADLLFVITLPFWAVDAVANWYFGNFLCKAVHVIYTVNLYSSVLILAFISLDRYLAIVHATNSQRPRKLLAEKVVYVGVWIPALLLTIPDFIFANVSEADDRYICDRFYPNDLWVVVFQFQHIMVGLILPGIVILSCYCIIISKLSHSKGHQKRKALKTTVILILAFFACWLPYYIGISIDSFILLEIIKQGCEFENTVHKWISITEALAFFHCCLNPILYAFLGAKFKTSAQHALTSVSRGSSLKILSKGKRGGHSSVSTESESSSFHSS

SMILES	IC50
c1ccc2c(NC3CCNCC3)nc(NCc3cc(CCCNCCCNC4CCCCC4)on3)nc2c1 [Compound 1]	< 50 nM
c1ccc2c(NC3CCNCC3)nc(NCc3coc(CCCNCCCNC4CCCCC4)n3)nc2c1 [Compound 2]	< 50 nM
c1ccc2c(NC3CCNCC3)nc(NCc3nc(CCCNCCCNC4CCCCC4)cs3)nc2c1 [Compound 3]	< 50 nM
c1ccc2c(NC3CCNCC3)nc(NCc3nnc(CCCNCCCNC4CCCCC4)o3)nc2c1 [Compound 6]	< 50 nM
c1ccc2c(NC3CCNCC3)nc(NCc3nnc(CCCNCCCNC4CCCCC4)s3)nc2c1 [Compound 7]	< 50 nM
c1ccc2c(NC3CCNCC3)nc(NCCc3cn(CCCCNCCCNC4CCCCC4)cn3)nc2c1 [Compound 8]	50 to 100 nM
c1ccc2c(NC3CCNCC3)nc(NCc3cc(CCCNCCCNC4CCCCC4)[nH]n3)nc2c1 [Compound 9]	< 50 nM
c1ccc2c(NC3CCNCC3)nc(NCc3ncn(CCCNCCCNC4CCCCC4)n3)nc2c1 [Compound 11]	50 to 100 nM
c1ccc2c(N3CCNCC3)nc(NCc3nnn(CCCNCCCNC4CCCCC4)n3)nc2c1 [Compound 12]	< 50 nM
c1ccc2c(NC3CCNCC3)nc(NCc3nnnn3CCCNCCCNC3CCCCC3)nc2c1 [Compound 14]	50 to 100 nM
Cc1cc(NC2CCNCC2)nc(NCc2cc(CCCNCCCNC3CCCCC3)on2)n1 [Compound 15]	< 50 nM
Cc1cc(NC2CCNCC2)nc(NCc2noc(CCCNCCCNC3CCCCC3)n2)n1 [Compound 19]	< 50 nM
CCc1cc(NC2CCNCC2)nc(NCc2nnc(CCCNCCCNC3CCCCC3)s2)n1 [Compound 25]	< 50 nM
CCc1cc(NC2CCNCC2)nc(NCc2nnc(CCCNCCCNC3CCCCC3)[nH]2)n1 [Compound 27]	50 to 100 nM
Cc1cc(NC2CCNCC2)nc(NCc2cc(CCCNCCCNC3CCCCC3)[nH]n2)n1 [Compound 28]	< 50 nM
N[C@@H](CCC(=O)N1CCC(Nc2nc(NCCc3cn(CCCCNCCCNC4CCCCC4)cn3)nc3ccccc23)CC1)C(=O)O [Compound 36]	100 to 1000 nM
Cc1cc(NC2CCN(C(=O)CCNCC(=O)O)CC2)nc(NCc2noc(CCCNCCCNC3CCCCC3)n2)n1 [Compound 43]	50 to 100 nM
Cc1cc(NC2CCN(C(=O)CCNCC(=O)O)CC2)nc(NCc2nnc(CCCNCCCNC3CCCCC3)o2)n1 [Compound 44]	100 to 1000 nM
N[C@@H](CCC(=O)NCCN1CCC(Nc2nc(NCc3nnc(CCCNCCCNC4CCCCC4)o3)nc3ccccc23)CC1)C(=O)NCCP(=O)(O)O [Compound 51]	100 to 1000 nM
N[C@@H](CCC(=O)NCCN1CCC(Nc2nc(NCc3nnnn3CCCNCCCNC3CCCCC3)nc3ccccc23)CC1)C(=O)NCCP(=O)(O)O [Compound 52]	100 to 1000 nM
c1cnc2nc(NCc3nnn(CCCNCCCNC4CCCCC4)n3)nc(NC3CCNCC3)c2c1 [Compound 53]	100 to 1000 nM
O=C(O)[C@@H](O)CCC(=O)N1CCC(Nc2nc(NCc3nc(CCCNCCCNC4CCCCC4)co3)nc3ccccc23)CC1 [Compound 54]	100 to 1000 nM
c1nc2c(NCc3nnn(CCCNCCCNC4CCCCC4)n3)nc(N3CCNCC3)nc2[nH]1 [Compound 55]	100 to 1000 nM
c1cc2c(NC3CCNCC3)nc(NCc3nnn(CCCNCCCNC4CCCCC4)n3)nc2s1 [Compound 56]	100 to 1000 nM
Nc1cc(N2CCNCC2)nc(NCc2nnn(CCCNCCCNC3CCCCC3)n2)n1 [Compound 57]	100 to 1000 nM
c1cc(NC2CCNCC2)nc(NCc2nnn(CCCNCCCNC3CCCCC3)n2)n1 [Compound 58]	50 to 100 nM

SMILES	IC50
N[C@@H](CCC(=O)N1CCC(Nc2nc(NCCc3cn(CCCCNCCCNC4CCCCC4)cn3)nc3ccccc23)CC1)C(=O)OCc1ccccc1 [Compound 60]	100 to 1000 nM
CCc1cc(NC2CCN(C(=O)CCNCC(=O)O)CC2)nc(NCc2nnn(CCCNCCCNC3CCCCC3)n2)n1 [Compound 63]	100 to 1000 nM
CCc1cc(NC2CCN(C(=O)CCCNCC(=O)O)CC2)nc(NCc2nnn(CCCNCCCNC3CCCCC3)n2)n1 [Compound 64]	100 to 1000 nM
CCc1cc(NC2CCN(C(=O)CC[C@H](N)C(=O)O)CC2)nc(NCc2nnn(CCCNCCCNC3CCCCC3)n2)n1 [Compound 65]	100 to 1000 nM
CCc1cc(NC2CCN(C(=O)CC[C@H](N)C(=O)O)CC2)nc(NCc2nnc(CCCNCCCNC3CCCCC3)[nH]2)n1 [Compound 66]	50 to 100 nM
N[C@@H](CCC(=O)N1CCC(Nc2nc(NCc3nnnn3CCCNCCCNC3CCCCC3)nc3ccccc23)CC1)C(=O)O [Compound 67]	100 to 1000 nM
O=C(O)CNCCC(=O)N1CCC(Nc2nc(NCc3nnnn3CCCNCCCNC3CCCCC3)nc3ccccc23)CC1 [Compound 68]	100 to 1000 nM
CCc1cc(NC2CCN(C(=O)CC[C@H](N)C(=O)O)CC2)nc(NCc2nnc(CCCNCCCNC3CCCCC3)s2)n1 [Compound 69]	100 to 1000 nM
CCc1cc(NC2CCN(C(=O)CCNCC(=O)O)CC2)nc(NCc2nnc(CCCNCCCNC3CCCCC3)s2)n1 [Compound 70]	100 to 1000 nM
Cc1cc(NC2CCNCC2)nc(NCc2ncn(CCCNCCCNC3CCCCC3)n2)n1 [Compound 71]	100 to 1000 nM
C1=NC(CNc2nc(NC3CCNCC3)c3ccccc3n2)=NC1CNCCCNC1CCCCC1 (centres unmarked) [Compound 72]	50 to 100 nM
Cc1cc(NC2CCNCC2)nc(NCc2nc(CNCCCNC3CCCCC3)c[nH]2)n1 [Compound 73]	50 to 100 nM
FC(F)(F)c1cnc(NCc2nnn(CCCNCCCNC3CCCCC3)n2)nc1NC1CCNCC1 [Compound 74]	100 to 1000 nM
Cc1cnc(NCc2nnn(CCCNCCCNC3CCCCC3)n2)nc1NC1CCNCC1 [Compound 75]	< 50 nM
N[C@@H](CCC(=O)N1CCC(Nc2nc(NCc3cc(CCCNCCCNC4CCCCC4)n[nH]3)nc3ccccc23)CC1)C(=O)O [Compound 76]	50 to 100 nM
N[C@@H](CCC(=O)N1CCC(Nc2nc(NCc3ncn(CCCNCCCNC4CCCCC4)n3)nc3ccccc23)CC1)C(=O)O [Compound 77]	100 to 1000 nM
O=C(O)[C@H]1CCCN1CCC(=O)N1CCC(Nc2nc(NCc3nnn(CCCNCCCNC4CCCCC4)n3)nc3ccccc23)CC1 [Compound 78]	50 to 100 nM
N[C@@H](CCC(=O)N1CCC(Nc2nc(NCc3nc(CNCCCNC4CCCCC4)c[nH]3)nc3ccccc23)CC1)C(=O)O [Compound 79]	100 to 1000 nM
CC(C)CC(NCCC(=O)N1CCC(Nc2nc(NCc3nnn(CCCNCCCNC4CCCCC4)n3)nc3ccccc23)CC1)C(=O)O (centres unmarked) [Compound 80]	100 to 1000 nM
Cc1cc(NC2CCN(C(=O)CCNCC(=O)O)CC2)nc(NCc2ncn(CCCNCCCNC3CCCCC3)n2)n1 [Compound 81]	100 to 1000 nM
CCOC(=O)CNCCC(=O)N1CCC(Nc2cc(C)nc(NCc3cc(CCCNCCCNC4CCCCC4)n[nH]3)n2)CC1 [Compound 82]	50 to 100 nM
Cc1cc(NC2CCN(C(=O)CCNCC(=O)O)CC2)nc(NCc2nc(CNCCCNC3CCCCC3)c[nH]2)n1 [Compound 83]	100 to 1000 nM
N[C@@H](CCC(=O)NCCN1CCC(Nc2nc(NCc3nc(CNCCCNC4CCCCC4)cs3)nc3ccccc23)CC1)C(=O)NCCP(=O)(O)O [Compound 84]	100 to 1000 nM
Cc1cnc(NCc2nnn(CCCNCCCNC3CCCCC3)n2)nc1NC1CCN(C(=O)CCNCC(=O)O)CC1 [Compound 85]	100 to 1000 nM
Cc1cnc(NCc2nnn(CCCNCCCNC3CCCCC3)n2)nc1NC1CCN(C(=O)CC[C@H](N)C(=O)O)CC1 [Compound 86]	100 to 1000 nM

Test system: T-cell acute lymphoblastic leukemia (CCRF-CEM) cells
Experiment: Inhibition of CXCL12-induced chemotaxis in lymphoblastic leukemia cells
Format: cell-based
Details: Homo sapiens, CXCL12 10 nM, 2.5 h at 37 °C, read-out: concentration required to inhibit chemotaxis by 50% (EC50)
Procedure: The response of cancer cells to compounds of Formula (I) was evaluated using the chemotaxis assay as set forth below.
T-cell acute lymphoblastic leukemia (CCRF-CEM) cells in Roswell Park Memorial Institute medium (RPMI) 1640 supplemented with 10% […] were incubated with 250 μL of a test compound. The assay was performed using Millicell Hanging Cell Culture Inserts (pore size 5 μm; 24-well plate; Millipore, Bedford, Mass., USA). After 10 minutes at 37° C., 250 μL of cells pre-incubated with a test compound were plated per well in the upper chambers of the inserts at a density of 2.5×10^5 cells/well. 300 μL/well medium containing CXCL12 (10 nM) and a test compound were plated in the lower chamber of the insert. After 2.5 h at 37° C., cells in both chambers of inserts were measured by flow cytometry (Guava Technologies, Hayward, Calif., USA).

SMILES	EC50
c1ccc2c(NC3CCNCC3)nc(NCc3cc(CCCNCCCNC4CCCCC4)on3)nc2c1 [Compound 1]	< 50 nM
c1ccc2c(NC3CCNCC3)nc(NCc3coc(CCCNCCCNC4CCCCC4)n3)nc2c1 [Compound 2]	< 50 nM
c1ccc2c(NC3CCNCC3)nc(NCc3nc(CCCNCCCNC4CCCCC4)cs3)nc2c1 [Compound 3]	< 50 nM
c1ccc2c(NC3CCNCC3)nc(NCc3nnc(CCCNCCCNC4CCCCC4)o3)nc2c1 [Compound 6]	< 50 nM
c1ccc2c(NC3CCNCC3)nc(NCc3nnc(CCCNCCCNC4CCCCC4)s3)nc2c1 [Compound 7]	< 50 nM
c1ccc2c(NC3CCNCC3)nc(NCCc3cn(CCCCNCCCNC4CCCCC4)cn3)nc2c1 [Compound 8]	< 50 nM
c1ccc2c(NC3CCNCC3)nc(NCc3nnnn3CCCNCCCNC3CCCCC3)nc2c1 [Compound 14]	< 50 nM
Cc1cc(NC2CCNCC2)nc(NCc2cc(CCCNCCCNC3CCCCC3)on2)n1 [Compound 15]	< 50 nM

Reference: patent US10882854B2, “Heterocyclic compounds and use thereof” (National Health Research Institutes, priority 2017, dated 2021)
